Results: patent US20140364445A1, “PHARMACEUTICAL COMPOSITION COMPRISING A TRPA1 ANTAGONIST AND AN ANTICHOLINERGIC AGENT” (GLENMARK PHARMACEUTICALS S.A., priority 2011, published 2014)
Where two headings read alike, the source gives them in different places.

Assays:
LPS induced neutrophilia [1] = test: LPS induced neutrophilia, Compound 52 and aclidinium bromide; format: in vivo, male SD rats; details: BAL 4 h after LPS, Compound 52 3 mg/kg p.o., aclidinium 50 mcg/ml inh; for inhibition at 3 mg/kg: Rattus norvegicus, Neutrophil, po, read-out: No of neutrophils, % inhibition (mean ± S.E.M.) (converted)
Method: The effect of combination of Compound 52 and aclidinium bromide on LPS induced neutrophilia in male SD rats was evaluated. Animals were grouped as mentioned in Table 4.
LPS was nebulized at concentration of 100 mcg ml^−1 for 40 min at 0.4 ml/min and a pressure of 1.7 psig in a Perspex exposure chamber (1.5×1×1 ft) fitted with nebulizer (RCI Hudson). Control animals were given saline exposure under similar conditions. All the animals were treated with compounds as mentioned in Table 4. Compound 52 (3 mg/kg/5 ml) was administered orally 2 h prior to LPS and aclidinium (50 mcg/ml) was nebulized at the rate of 0.05 ml/min and exposed to the animals for 3 min prior LPS exposure.
(§1) Bronchoalveolar lavage (BAL) was done after 4 h of LPS exposure. Animals were anesthetized with urethane (1.2 gm/kg/5 mL, i.p. in normal saline) and BAL was done with PBS (3 ml). This procedure was repeated three times and the BAL fluid was pooled for the measurement of total leukocyte. Remaining BAL fluid was centrifuged immediately at 4000 rpm for 20 min. The pellet formed in the bottom of the tube was used for the smear preparation for differential leukocyte count estimation. The smeared slides were fixed by alcohol and stained using Leishman's stain further carried for differential leukocyte count.

[2] = system: methacholine-induced bronchoconstriction; test: Methacholine challenge test (methacholine-induced bronchoconstriction), invasive whole body plethysmograph; format: in vivo, male Dunkin Hartley guinea pig; details: for inhibition at 10 mg/kg: Cavia porcellus, read-out: % inhibition in airway resistance (Mean ± SEM)
Method: The effect of Compound 52, tiotropium bromide and their combination on methacholine challenge test in male Dunkin Hartley guinea pig was evaluated using invasive whole body plethysmograph (Elan™ R C, Buxco apparatus). Animals and grouped as described in Table 2.
Animals were anesthetized by intraperitonial injection of urethane (1 g/kg). The surgical process carried out in the aseptic area. Right jugular vein of anesthetized animal was exposed and cannulated with fine bore polythene tube. Trachea was also cannulated for artificial respiration and to measure airway resistance. The prepared animal was fixed in the invasive whole body plethysmograph with artificial respiration (tidal volume −7 ml). Methacholine challenge test was performed and the recordings were taken by the following schedule. • First log period: Baseline −5 min • Second log period: Normal saline −3 min • Third log period: Methacholine −3 min
This protocol was performed for all groups. Compound 52 (10 mg/kg, i.p.) was injected 4 hour prior to methacholine challenge. Tiotropium (0.5 mcg/kg, i.v) was given at second log period. In third log period, the animal was injected with methacholine (60 mcg/kg/2 ml, i.v). The methacholine induced bronchoconstriction (expressed as airway resistance (RI value in cmH2O*sec/ml)) was recorded by Buxco apparatus.

LPS induced neutrophilia [3] = test: LPS induced neutrophilia, Compound 52 and tiotropium; format: in vivo, female SD rats; details: for inhibition at 3 mg/kg: Rattus norvegicus, Neutrophil, po
Method: The effect of combination of Compound 52 and tiotropium on LPS induced neutrophilia in female SD rats was evaluated. Female SD rats were grouped as mentioned in Table 6. Compound 52 (3 mg/kg/5 ml) and tiotropium (1 mcg/ml as inhalation for 3 min at the rate of 0.05 ml/min) were administered 2 and 1 hour prior to LPS exposure respectively. LPS was nebulized at concentration of 100 mcg ml^−1 for 40 min at 0.4 ml min^−1 and a pressure of 1.7 psig in a perspex exposure chamber (1.5×1×1 ft) fitted with nebulizer (RCI Hudson). Control animals were given saline exposure under similar conditions.
as §1, with “Animal was” for “Animals were”, “leukocyte.” for “leukocyte. Remaining”, “min and the” for “min. The”, “estimation.” for “estimation. The smeared slides were fixed by alcohol and stained using Leishman's stain further carried for differential leukocyte count.”

LPS induced neutrophilia [4] = test: LPS induced neutrophilia, Compound 52 and ipratropium bromide; format: in vivo, male SD rats; details: for inhibition at 6 mg/kg: Rattus norvegicus, Neutrophil, po
Method: Animals were grouped as mentioned in Table 8. LPS at a concentration of 100 mcg ml^−1 was nebulized for 40 min at 0.4 ml/min and a pressure of 1.7 psig in a Perspex exposure chamber (1.5×1×1 ft) fitted with nebulizer (RCI Hudson). Control animals were given saline exposure under similar conditions. All the animals were treated as mentioned in Table 8. […] Bronchoalveolar lavage (BAL) was done after 4 h of LPS exposure. Animals were anesthetized with urethane (1.2 gm/kg/5 mL, i.p. in normal saline) and BAL was done with PBS (3 ml). This procedure was repeated three times and the BAL fluid was pooled for the measurement of total leukocyte. Remaining BAL fluid was centrifuged at 4000 rpm for 20 min. The pellet formed in the bottom of the tube was used for the smear preparation for differential leukocyte count estimation. The differential leukocyte count was done using Leishman's stain. […] Statistical significance was set at p<0.05.

human TRPA1 receptor = target: T1, human TRPA1 receptor (Homo sapiens, UniProt O75762); test: Inhibition of AITC induced cellular uptake of radioactive calcium in human TRPA1 expressing CHO cells; format: cell-based; details: read-out: hTRPA1 IC50 values
T1 construct: expressed in transfected cells; host or cells: CHO cells
Method: The human IC50 values were measured by the following method:
The inhibition of TRPA1 receptor activation was measured as inhibition of allylisothiocyanate (AITC) induced cellular uptake of radioactive calcium.

[5] = Compound 52 10 mg/kg i.p. 4 hour prior, tiotropium bromide 0.5 mcg/kg i.v., methacholine 60 mcg/kg i.v.
[6] = BAL 4 h after LPS, Compound 52 3 mg/kg p.o., tiotropium 1 mcg/ml inh
[7] = BAL 4 h after LPS, Compound 52 6 mg/kg p.o., ipratropium 1 mg/ml inh
[8] = 4 h, read-out: No of neutrophils, % inhibition (mean ± S.E.M.)

T1 sequence (O75762 whole entry): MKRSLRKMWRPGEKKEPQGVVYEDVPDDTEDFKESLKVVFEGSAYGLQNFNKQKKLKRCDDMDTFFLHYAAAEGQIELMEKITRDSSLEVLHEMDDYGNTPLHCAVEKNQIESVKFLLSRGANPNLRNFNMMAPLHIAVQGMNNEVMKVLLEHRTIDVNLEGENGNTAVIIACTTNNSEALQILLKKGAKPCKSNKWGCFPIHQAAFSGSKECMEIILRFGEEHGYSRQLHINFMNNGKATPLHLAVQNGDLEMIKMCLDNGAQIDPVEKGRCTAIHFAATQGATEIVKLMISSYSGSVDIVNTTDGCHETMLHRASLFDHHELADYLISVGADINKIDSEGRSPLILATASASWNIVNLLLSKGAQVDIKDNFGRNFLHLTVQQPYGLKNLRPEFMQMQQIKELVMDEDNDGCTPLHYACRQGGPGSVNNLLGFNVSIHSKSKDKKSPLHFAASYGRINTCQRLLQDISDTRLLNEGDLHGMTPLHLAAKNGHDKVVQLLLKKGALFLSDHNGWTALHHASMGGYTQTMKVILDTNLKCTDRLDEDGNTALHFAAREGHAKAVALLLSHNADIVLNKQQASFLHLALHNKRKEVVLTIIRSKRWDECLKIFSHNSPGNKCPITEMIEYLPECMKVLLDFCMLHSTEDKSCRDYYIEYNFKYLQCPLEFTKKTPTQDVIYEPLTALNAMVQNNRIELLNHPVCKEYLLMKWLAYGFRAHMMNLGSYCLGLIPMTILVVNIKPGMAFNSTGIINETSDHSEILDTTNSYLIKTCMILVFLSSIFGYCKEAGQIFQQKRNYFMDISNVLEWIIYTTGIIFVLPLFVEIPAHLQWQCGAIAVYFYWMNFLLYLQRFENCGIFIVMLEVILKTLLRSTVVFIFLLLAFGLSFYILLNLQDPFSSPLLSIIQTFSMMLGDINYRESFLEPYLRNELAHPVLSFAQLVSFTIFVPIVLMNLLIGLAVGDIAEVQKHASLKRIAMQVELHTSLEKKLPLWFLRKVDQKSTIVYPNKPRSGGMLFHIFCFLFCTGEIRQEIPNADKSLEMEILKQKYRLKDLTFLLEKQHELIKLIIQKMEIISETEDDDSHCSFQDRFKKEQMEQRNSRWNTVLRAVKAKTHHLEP

Row | SMILES | No of neutrophils (mean ± S.E.M.) (LPS induced neutrophilia [1]) | inhibition at 3 mg/kg (LPS induced neutrophilia [1]) [%] | Mean airway resistance (Mean ± SEM) [2, 5] [cmH2O*sec/ml] | No of neutrophils (mean ± S.E.M.) (LPS induced neutrophilia [3]; [6]) | No of neutrophils (mean ± S.E.M.) (LPS induced neutrophilia [4]; [7]) | further results
1 | O=C(O[C@H]1C[N+]2(CCCOc3ccccc3)CCC1CC2)C(O)(c1cccs1)c1cccs1.[Br-] [Aclidinium bromide, [(8R)-1-(3-phenoxypropyl)-1-azoniabicyclo[2.2.2]octan-8-yl]2-hydroxy-2,2-dithiophen-2-ylacetate bromide, reference compound] | 7.13 ± 1.03 | 21.1 |  |  |  | 
2 | Cn1c(=O)c2c(CC(=O)Nc3nc(-c4ccc(F)c(C(F)(F)F)c4F)cs3)csc2n(C)c1=O [Compound 52] | 6.73 ± 0.72 | 20.4 | 0.77 ± 0.11 | 6.7 ± 0.9 | 8.4 ± 0.8 | inhibition at 10 mg/kg [2, 5]: 37.9 ± 6.7%; inhibition at 3 mg/kg (LPS induced neutrophilia [3]; BAL 4 h after LPS, Compound 52 3 mg/kg p.o., tiotropium 1 mcg/ml inh, read-out: No of neutrophils, % inhibition (mean ± S.E.M.) (converted)): 17.9%; inhibition at 6 mg/kg (LPS induced neutrophilia [4]; BAL 4 h after LPS, Compound 52 6 mg/kg p.o., ipratropium 1 mg/ml inh, read-out: No of neutrophils, % inhibition (mean ± S.E.M.) (converted)): -3.2%
3 | Cn1c(=O)c2c(CC(=O)/N=c3\scc(-c4ccc(F)c(C(F)(F)F)c4F)n3COP(=O)(O)O)csc2n(C)c1=O [Compound 96] |  |  |  |  |  | IC50 (human TRPA1 receptor): 559 nM
4 | CC(C)[N+]1(C)[C@@H]2CC[C@H]1C[C@@H](OC(=O)C(CO)c1ccccc1)C2 (some centres unmarked) [Ipratropium bromide, 8-azoniabicyclo (3.2.1) octane, 3-(3-hydroxy-1-oxo-2-phenylpropoxy)-8-methyl-8-(1-methylethyl)-, bromide monohydrate, reference compound] |  |  |  |  | 6.2 ± 0.6 | inhibition at 6 mg/kg (LPS induced neutrophilia [4]; [8]): 23%
5 | C[N+]1(C)[C@@H]2C[C@@H](OC(=O)C(O)(c3cccs3)c3cccs3)C[C@H]1[C@@H]1O[C@@H]12 [Tiotropium bromide, (1α, 2β, 4β, 5α, 7β)-7-[(hydroxydi-2-thienylacetyl)oxy]-9,9-dimethyl-3-oxa-9-azoniatricyclo[3.3.1.02,4] nonane bromide monohydrate, reference compound] |  |  | 1.51 ± 0.32 | 6.8 ± 0.7 |  | inhibition at 10 mg/kg [2]: -10.7 ± 23.4%; inhibition at 3 mg/kg (LPS induced neutrophilia [3]; [8]): 18.9%
